Results from patent publication US20220195481A1, “MITOCHONDRIAL RESPIROMETRY IN FROZEN SPECIMENS” (The Regents of the University of Califormia, priority 2019, published 2022).
Square brackets hold non-standard residues; d marks the D form. Peptide text beside a SMILES is read from it. Phe(ol) = N[C@H](CO)Cc1ccccc1; Aib = CC(C)(N)C(=O)O

Key:
[1] = tested on: SH-SY5Y cells; assay: Respirometry (oxygen consumption rate, Seahorse XF96) in frozen SH-SY5Y cells; type: cell-based, human; settings: MAS supplemented with 10 μg/mL Alamethicin and 100 μg/mL cytochrome c vs MAS alone; FIG. 8
Procedure: (§1) All procedures are performed at 4° C. All equipment, solutions, and consumables are pre-chilled. • 1. Re-suspend sample in 20 μL MAS buffer. Load 5 technical replicates of each condition. Leave at least 4 empty wells to determine background signal. • 2. To adhere mitochondrial particles to the bottom of the plate, centrifuge the loaded plate at 2,000×g for 5 min at 4° C. using plate carrier rotating buckets. […] After centrifugation, adjust the total volume of the wells to 150 uL by adding 130 uL MAS assay buffer per well. Supplement MAS buffer with 1-200 μg/mL cytochrome c and 1-500 μg/mL Alamethicin if maximal respiration is not reached on MAS alone. To avoid disrupting mitochondrial adherence to the bottom of the plate, add MAS using multichannel pipette pointed at a 45° angle to the top of well chamber, as instructed by the manufacturer. • 4. Incubate the plate at 37° C. in a non-CO2 incubator for 5 minutes. • 5. Insert plate into XF96 and begin assay protocol. Measure oxygen consumption rate (OCR) before and after every injection. Mix, wait, and measure times can vary between 1-7 minutes and 1-5 repetitions.
1. SH-SY5Y cells were cultured according to ATCC instructions. 2. When the cells reached 80% confluency, they were trypsinized, counted, spun down, washed in PBS, and frozen. 3. Cells were thawed on ice and re-suspended in MAS. 4. […]

[2] = tested on: frozen murine liver tissue homogenate; assay: Respirometry (oxygen consumption rate, Seahorse XF96) in frozen murine liver homogenate; settings: MAS supplemented with 100 μg/mL cytochrome c vs MAS alone; NADH and TMPD/Ascorbate injections; FIG. 3
Procedure: as §1
1. Homogenate was prepared from previously frozen murine liver tissue in MAS using glass/Teflon dounce homogenizer. The preparation was centrifuged at 1,000×g for 5 minutes at 4° C. and the supernatant transferred to a new tube. 2. […]

Compound	respiration in frozen cultured human bone marrow neuroblastoma cell line [1]	respiration in frozen tissue homogenates [2]
CC(=O)NC(C)(C)C(=O)N1CCC[C@H]1C(=O)NC(C)(C)C(=O)N[C@@H](C)C(=O)NC(C)(C)C(=O)N[C@@H](C)C(=O)N[C@@H](CCC(N)=O)C(=O)NC(C)(C)C(=O)N[C@H](C(=O)NC(C)(C)C(=O)NCC(=O)N[C@@H](CC(C)C)C(=O)NC(C)(C)C(=O)N1CCC[C@H]1C(=O)N[C@H](C(=O)NC(C)(C)C(=O)NC(C)(C)C(=O)N[C@@H](CCC(=O)O)C(=O)N[C@@H](CCC(N)=O)C(=O)N[C@H](CO)Cc1ccccc1)C(C)C)C(C)C [Alamethicin] (Ac-[Aib]P[Aib]A[Aib]AQ[Aib]V[Aib]GL[Aib]PV[Aib][Aib]EQ[Phe(ol)])	Enhances Respiration	
cytochrome c		enhances respiration
